Test results reported in PubChem BioAssay AID1845207 (Molecular Pharmacology Branch, DTP, NCI, 2023).

Test system: NCI-H1876 tumor spheroid viability
Experiment: Anticancer human tumor NCI-H1876 cell line growth inhibition;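 further: spheroids exposed to compounds for seven days before the viability read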;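 on viability, T/C: percent of DMSO vehicle control viability so 100% = vehicle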
Details: spheroids with HUVEC and MSC; for IC50: curve of first compound; for viability, T/C: stronger effect = lower value
Summary of the method: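 Single agents and combinations were tested on spheroids built from tumor cells plus HUVEC and hMSC, at half-log dilutions starting at or near clinical Cmax, else 10 microM; final DMSO 0.25% (v/v).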

[1] = second compound 1 µM, first compound 0.00949 µM
[2] = second compound 1 µM, first compound 0.03 µM
[3] = second compound 1 µM, first compound 0.0949 µM
[4] = second compound 1 µM, first compound 0.3 µM
[5] = second compound 1 µM, first compound 0.949 µM
[6] = second compound 1 µM, first compound 3 µM
[7] = second compound 3.16 µM, first compound 0.00949 µM
[8] = second compound 3.16 µM, first compound 0.03 µM
[9] = second compound 3.16 µM, first compound 0.0949 µM
[10] = second compound 3.16 µM, first compound 0.3 µM
[11] = second compound 3.16 µM, first compound 0.949 µM
[12] = second compound 3.16 µM, first compound 3 µM
[13] = second compound 10 µM, first compound 0.00949 µM
[14] = second compound 10 µM, first compound 0.03 µM
[15] = second compound 10 µM, first compound 0.0949 µM
[16] = second compound 10 µM, first compound 0.3 µM
[17] = second compound 10 µM, first compound 0.949 µM
[18] = second compound 10 µM, first compound 3 µM
[19] = second compound 31.6 µM, first compound 0.00949 µM
[20] = second compound 31.6 µM, first compound 0.03 µM
[21] = second compound 31.6 µM, first compound 0.0949 µM
[22] = second compound 31.6 µM, first compound 0.3 µM
[23] = second compound 31.6 µM, first compound 0.949 µM
[24] = second compound 31.6 µM, first compound 3 µM
[25] = second compound 100 µM, first compound 0.00949 µM
[26] = second compound 100 µM, first compound 0.03 µM
[27] = second compound 100 µM, first compound 0.0949 µM
[28] = second compound 100 µM, first compound 0.3 µM
[29] = second compound 100 µM, first compound 0.949 µM
[30] = second compound 100 µM, first compound 3 µM

| Structure (SMILES) | IC50 (second compound 1 µM) [nM] | IC50 (second compound 3.16 µM) [nM] | IC50 (second compound 10 µM) [nM] | IC50 (second compound 31.6 µM) [nM] | IC50 (second compound 100 µM) [nM] | viability, T/C [3] [%] | viability, T/C [4] [%] | viability, T/C [5] [%] | viability, T/C [6] [%] | viability, T/C [9] [%] | viability, T/C [10] [%] | viability, T/C [11] [%] | viability, T/C [12] [%] | viability, T/C [15] [%] | viability, T/C [16] [%] | viability, T/C [17] [%] | viability, T/C [18] [%] | viability, T/C [21] [%] | viability, T/C [22] [%] | viability, T/C [23] [%] | further results |
| --- | --- | --- | --- | --- | --- | --- | --- | --- | --- | --- | --- | --- | --- | --- | --- | --- | --- | --- | --- | --- | --- |
| CNCc1ccc(-c2cc(-c3nc(-c4ccc(S(=O)(=O)C(C)C)cc4)cnc3N)on2)cc1 + Cn1nnc2c(C(N)=O)ncn2c1=O | 121 | 83.7 | 92.3 | 89.3 | < 9.49 | 54.9 | 33.6 | 12.6 | 0.35 | 55.4 | 29.7 | 15.2 | 0.44 | 54 | 29.9 | 13.1 | 11 | 58.2 | 30.1 | 51.8 | viability, T/C [1]: 82%; viability, T/C [2]: 70.7%; viability, T/C [7]: 95.4%; viability, T/C [8]: 54.9%; viability, T/C [13]: 86.9%; viability, T/C [14]: 65.2%; viability, T/C [19]: 82%; viability, T/C [20]: 57.8%; viability, T/C [24]: 45.7%; viability, T/C [25]: 50.8%; viability, T/C [26]: 43%; viability, T/C [27]: 36.5%; viability, T/C [28]: 20.9%; viability, T/C [29]: 47.9%; viability, T/C [30]: 0.26% |
| Cc1sc2c(c1C)C(c1ccc(Cl)cc1)=NC(CC(=O)Nc1ccc(O)cc1)c1nnc(C)n1-2 (stereo not given) + Cn1nnc2c(C(N)=O)ncn2c1=O | 55.8 | 176 | 89.4 | 73.7 | 23.5 | 45 | 27 | 15.7 | 8.48 | 54.2 | 50.6 | 15.3 | 10.5 | 55.1 | 31 | 15.1 | 9 | 39.4 | 25.6 | 13.2 | viability, T/C [1]: 85.6%; viability, T/C [2]: 56%; viability, T/C [7]: 84%; viability, T/C [8]: 75.2%; viability, T/C [13]: 87.3%; viability, T/C [14]: 62.2%; viability, T/C [19]: 87.3%; viability, T/C [20]: 75.6%; viability, T/C [24]: 8.31%; viability, T/C [25]: 63.4%; viability, T/C [26]: 44.6%; viability, T/C [27]: 34.2%; viability, T/C [28]: 19.6%; viability, T/C [29]: 9.06%; viability, T/C [30]: 4.09% |
| Cn1ncnc1[C@H]1c2n[nH]c(=O)c3cc(F)cc(c23)N[C@@H]1c1ccc(F)cc1 + Cn1nnc2c(C(N)=O)ncn2c1=O | 43.2 | 60.8 | 16 | < 9.49 | < 9.49 | 39 | 25.1 | 10.8 | 5.26 | 52.3 | 20 | 50 | 15.5 | 47.2 | 15 | 33.5 | 5.45 | 14.5 | 12 | 8.61 | viability, T/C [1]: 70.1%; viability, T/C [2]: 54.6%; viability, T/C [7]: 72.4%; viability, T/C [8]: 52.1%; viability, T/C [13]: 56.8%; viability, T/C [14]: 38.1%; viability, T/C [19]: 29.2%; viability, T/C [20]: 19.2%; viability, T/C [24]: 4.86%; viability, T/C [25]: 13.8%; viability, T/C [26]: 10.8%; viability, T/C [27]: 11.6%; viability, T/C [28]: 9.19%; viability, T/C [29]: 33.3%; viability, T/C [30]: 4.67% |
| O=C(c1cc(Cc2n[nH]c(=O)c3ccccc23)ccc1F)N1CCN(C(=O)C2CC2)CC1 + Cn1nnc2c(C(N)=O)ncn2c1=O | 6950 | 25400 | 9730 | 2700 | < 94.9 | 85.1 | 69.8 | 77.8 | 64.6 | 89.8 | 82.4 | 72.7 | 61.5 | 79.2 | 70.3 | 64.6 | 53.7 | 75.3 | 69.4 | 53.3 | viability, T/C (second compound 1 µM, first compound 9.49 µM): 32.2%; viability, T/C (second compound 1 µM, first compound 30 µM): 56.9%; viability, T/C (second compound 3.16 µM, first compound 9.49 µM): 65.2%; viability, T/C (second compound 3.16 µM, first compound 30 µM): 45.1%; viability, T/C (second compound 10 µM, first compound 9.49 µM): 60%; viability, T/C (second compound 10 µM, first compound 30 µM): 17.2%; viability, T/C [24]: 55.7%; viability, T/C (second compound 31.6 µM, first compound 9.49 µM): 32.9%; viability, T/C (second compound 31.6 µM, first compound 30 µM): 15.8%; viability, T/C [27]: 54.7%; viability, T/C [28]: 31.5%; viability, T/C [29]: 29.6%; viability, T/C [30]: 62.5%; viability, T/C (second compound 100 µM, first compound 9.49 µM): 18.8%; viability, T/C (second compound 100 µM, first compound 30 µM): 15.7% |
